Values joined by “and” are separate entries in the source; they are usually repeats but may differ in a detail not shown here. Equal values may be shown once. “Also recorded” adds a separate entry of the source.

Consider 3 molecules from publication PMC9291687.

The test system of data set [1] is PC-3 cells. The experiment in a line: Cell cycle analysis by flow cytometry (PI staining). The data set is classed as cell-based, human. (In flow cytometry, cells or beads pass a laser one at a time.)
Data set [2] deals with PC-3 cells. The experiment in a line: Annexin V-FITC/PI apoptosis assay. It is filed as cell-based, human. The note with it: PC-3, 7.98 µM, 24 h. The method, then: The results were depicted in (Figure 6 and Supplementary data).
The effect of compound 8a on cell apoptosis was investigated as described in Supplementary data[76–78].
4.1.3. Annexin V-FITC apoptosis assay.
To detect the apoptosis induced by compound 8a, PC-3 cells were seeded and incubated overnight […]
the negative control. After that, the cells were collected and washed with PBS two successive times. The cells were exposed to centrifugation. Apoptosis detection kit (BD Biosciences, San Jose, CA) was used in this test. According to the manufacturer's protocol the cells were stained by Annexin V-FITC and propidium iodide (PI) in the binding buffer for 20min at room temperature in the dark. Using a flow cytometer, Annexin V-FITC and PI binding were analyzed. flowjo software was used to analyze the frequencies in all quadrants.
Cell cycle distribution (%)

A further data set deals with caspase-3 in PC-3 cells. The experiment in a line: Caspase-3 determination (ELISA). The data set is classed as cell-based, human. For orientation: ELISA stands for enzyme-linked immunosorbent assay.
For another data set, the system named is prostate cancer (PC-3). Briefly: MTT antiproliferative assay, PC-3. The note with it: Homo sapiens; for inhibition at 100 µM: read-out: Growth inhibition (%) PC-3; for IC50: read-out: IC50 PC-3. For orientation: Tetrazolium assays rely on reduction of a dye to a coloured formazan, in cell work by metabolically active cells.
The test system of the next data set is lung cancer (A-549). The experiment in a line: MTT antiproliferative assay, A-549. To be noted: Homo sapiens; for inhibition at 100 µM: A549, read-out: Growth inhibition (%) A549; for IC50: A549, read-out: IC50 A-549, MTT, mean of at least three experiments.
In the next data set the test system is breast cancer (MCF-7). Briefly: MTT antiproliferative assay, MCF-7. The note with it: Homo sapiens; for inhibition at 100 µM: MCF7, read-out: Growth inhibition (%) MCF-7.
The next data set deals with colon cancer (HCT-116). The experiment in a line: MTT antiproliferative assay, HCT-116. The note with it: for inhibition at 100 µM / IC50: Homo sapiens; for inhibition at 100 µM: HCT-116, read-out: Growth inhibition (%) HCT-116; for IC50: HCT-116, read-out: IC50 HCT-116; for Cytotoxic activity against HCT-116: MTT.
In a further data set the target is EGFR^WT (Homo sapiens, UniProt P00533). Briefly: EGFRWT kinase inhibitory assay (HTRF).
Sequence of EGFR^WT (P00533 25-1210): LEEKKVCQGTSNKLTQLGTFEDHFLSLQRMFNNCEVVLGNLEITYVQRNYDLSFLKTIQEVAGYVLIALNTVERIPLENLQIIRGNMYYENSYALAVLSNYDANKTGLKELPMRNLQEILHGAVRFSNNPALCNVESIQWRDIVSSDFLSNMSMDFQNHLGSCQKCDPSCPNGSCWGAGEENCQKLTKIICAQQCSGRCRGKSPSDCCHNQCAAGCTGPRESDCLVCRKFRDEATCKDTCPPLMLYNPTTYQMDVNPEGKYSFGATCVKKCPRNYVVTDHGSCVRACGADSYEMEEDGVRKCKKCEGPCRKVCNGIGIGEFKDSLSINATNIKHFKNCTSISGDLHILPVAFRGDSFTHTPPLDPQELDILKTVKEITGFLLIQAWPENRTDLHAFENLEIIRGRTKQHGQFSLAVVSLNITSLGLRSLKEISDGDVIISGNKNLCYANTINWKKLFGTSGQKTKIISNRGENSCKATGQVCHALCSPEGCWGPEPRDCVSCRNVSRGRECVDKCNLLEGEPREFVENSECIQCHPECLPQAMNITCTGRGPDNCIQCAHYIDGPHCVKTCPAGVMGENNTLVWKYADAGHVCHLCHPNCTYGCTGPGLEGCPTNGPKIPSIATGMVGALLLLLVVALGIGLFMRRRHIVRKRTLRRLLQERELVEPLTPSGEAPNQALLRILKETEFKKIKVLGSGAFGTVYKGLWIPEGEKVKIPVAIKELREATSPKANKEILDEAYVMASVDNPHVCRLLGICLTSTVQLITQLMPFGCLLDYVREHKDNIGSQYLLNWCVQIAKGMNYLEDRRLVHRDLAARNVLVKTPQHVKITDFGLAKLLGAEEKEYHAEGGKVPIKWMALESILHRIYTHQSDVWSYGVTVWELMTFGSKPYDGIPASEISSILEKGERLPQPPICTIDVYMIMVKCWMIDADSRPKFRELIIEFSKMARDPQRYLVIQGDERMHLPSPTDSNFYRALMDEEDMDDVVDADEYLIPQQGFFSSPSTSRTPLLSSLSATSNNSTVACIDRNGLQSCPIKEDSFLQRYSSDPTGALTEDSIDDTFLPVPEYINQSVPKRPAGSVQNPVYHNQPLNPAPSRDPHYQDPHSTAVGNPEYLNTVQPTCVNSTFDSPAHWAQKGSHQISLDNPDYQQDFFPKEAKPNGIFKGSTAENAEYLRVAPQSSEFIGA
For another data set, the target named is EGFR^T790M (Homo sapiens, UniProt P00533, T790M). Briefly: EGFRT790M kinase inhibitory assay (HTRF).
Sequence of EGFR^T790M (P00533 25-1210 T790M): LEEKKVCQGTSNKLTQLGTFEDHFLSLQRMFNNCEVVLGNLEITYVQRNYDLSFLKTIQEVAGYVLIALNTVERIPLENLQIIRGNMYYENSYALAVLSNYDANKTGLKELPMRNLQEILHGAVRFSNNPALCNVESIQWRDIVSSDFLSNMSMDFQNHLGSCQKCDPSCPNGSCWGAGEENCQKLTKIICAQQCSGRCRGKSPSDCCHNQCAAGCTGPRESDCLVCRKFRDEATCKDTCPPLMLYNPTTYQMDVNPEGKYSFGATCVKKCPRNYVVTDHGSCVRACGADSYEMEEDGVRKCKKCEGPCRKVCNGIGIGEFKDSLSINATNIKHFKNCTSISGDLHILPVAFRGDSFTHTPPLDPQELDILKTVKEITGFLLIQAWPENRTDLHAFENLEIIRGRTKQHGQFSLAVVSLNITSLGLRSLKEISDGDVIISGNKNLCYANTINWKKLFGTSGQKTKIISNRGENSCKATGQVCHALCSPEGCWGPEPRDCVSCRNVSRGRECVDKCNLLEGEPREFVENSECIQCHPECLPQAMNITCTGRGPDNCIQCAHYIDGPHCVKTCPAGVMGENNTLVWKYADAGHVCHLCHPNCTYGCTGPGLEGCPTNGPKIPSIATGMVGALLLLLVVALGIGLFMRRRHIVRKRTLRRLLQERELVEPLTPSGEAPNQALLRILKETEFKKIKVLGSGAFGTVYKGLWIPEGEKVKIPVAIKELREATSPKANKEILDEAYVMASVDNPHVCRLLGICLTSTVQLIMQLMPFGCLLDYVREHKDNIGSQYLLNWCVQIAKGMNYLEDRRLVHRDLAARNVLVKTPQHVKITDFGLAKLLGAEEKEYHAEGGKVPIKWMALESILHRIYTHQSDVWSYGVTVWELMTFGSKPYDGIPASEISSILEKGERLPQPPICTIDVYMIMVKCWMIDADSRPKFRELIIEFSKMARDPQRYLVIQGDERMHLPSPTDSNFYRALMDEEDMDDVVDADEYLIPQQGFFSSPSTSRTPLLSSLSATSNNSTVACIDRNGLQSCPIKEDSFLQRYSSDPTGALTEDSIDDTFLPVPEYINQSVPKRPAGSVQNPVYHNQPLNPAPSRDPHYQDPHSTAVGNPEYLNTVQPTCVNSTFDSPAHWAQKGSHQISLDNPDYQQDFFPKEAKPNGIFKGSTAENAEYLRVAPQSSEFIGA

Protocol for EGFR^T790M: (§1) In vitro EGFR inhibitory activity was assessed using Homogeneous time-resolved fluorescence (HTRF) assay[64] as described in Supplementary data.
(§2) The IC50 values were calculated using the nonlinear regression fitting models (Graph Pad, Prism Version 5).
(§3) EGFRWT and EGFRT790M kinase inhibitory assay
(§4) Homogeneous time resolved fluorescence (HTRF) assay was applied in this test.
(§5) EGFRWT, EGFRT790M (Sigma). firstly, the EGFRWT and/or EGFRT790M and their substrates were incubated with the tested compounds in enzymatic buffer for 5 min.
(§6) into the reaction mixture to allow starting the enzymatic reaction. The assay was conducted for 30 min at room temperature. The reaction was stopped by addition of detection reagents which contain
(§7) GraphPad Prism 5.0. Three independent experiments were performed for each concentration.
Protocol for EGFR^WT: as §1, §2, §3, §4, §5, §6, §7
Protocol for breast cancer (MCF-7): (§8) Preliminary screening against the cancer cell lines was performed, using doxorubicin as a reference drug at doses of 100 μM.
(§9) In vitro cytotoxicity was carried out using MTT assay protocol[63] as described in Supplementary data.
(§10) proliferative activity was assessed quantitatively as follows;
(§11) Human cancer cell lines were dropped in 96-well plates at a density of 3-8 × 10^3 cells/well.
(§12) growth medium was exchanged with 0.1 ml of fresh medium containing graded concentrations of the test compounds to be or equal DMSO and incubated for two days. Then 10 μl MTT solution (0.5 mg/ml) was added to each well, and the cells were incubated for additional 4 h. The crystals of MTT-formazan were dissolved in 100 μl of DMSO; the absorbance of each well was measured at 490 nm using an automatic ELISA reader system (TECAN, CHE). The IC50 values were calculated using the nonlinear regression fitting models (Graph Pad, Prism Version 5). The data represented the mean of three independent experiments in triplicate and were expressed as means
(§13) The results were expressed as growth inhibitory concentration (IC50) values and
Protocol for colon cancer (HCT-116): as §8, §9, §10, §11, §12, §13
Protocol for lung cancer (A-549): as §8, §9, §10, §11, §12, §13
Protocol for prostate cancer (PC-3): as §8, §9, §10, §11, §12, §13

Take `Cc1ccc(-c2cc(-c3ccc(Cl)cc3)nc3nc4[nH]c5ccccc5c(=O)n4c(=O)c23)cc1` [Compound 8a, 2–(4-Chlorophenyl)-4-(p-tolyl)-5H-pyrido[2',3':4,5]pyrimido [2,1-b] quinazoline-5,7(12H)-dione]: the “Increase of cell population at %S vs control” value with PC-3 cells [1] (PC-3, 7.98 µM, 24 h) is reported as 1.3 folds. Moreover, the “Increase of cell population at pre-G1 vs control” value with PC-3 cells [1] (PC-3, 7.98 µM, 24 h) is given as 22 folds. The “Cell cycle distribution %Pre-G1” value in the data set with PC-3 cells [1] (PC-3, 7.98 µM, 24 h, control 1.78%) is recorded as 41.06%. Further, the “Cell cycle distribution %G2-M” value in the data set on PC-3 cells [1] (PC-3, 7.98 µM, 24 h, control 9.75%) turned out to be 4.93%. Besides, the “Cell cycle distribution %S” value with PC-3 cells [1] (PC-3, 7.98 µM, 24 h, control 41.03%) stood at 53.69%. In addition, the “Cell cycle distribution %G0-G1” value in the data set on PC-3 cells [1] (PC-3, 7.98 µM, 24 h, control 49.22%) is listed as 41.38%. Besides, the “Cell cycle arrest phase” value in the data set with PC-3 cells [1] (PC-3 cells) was “arrested the cell cycle at pre-G1 phase; also recorded: arrest the PC-3 cell line at pre-G1; also recorded: arrested the cell cycle at the pre-G1 phase”. The “Increase in early apoptosis ratio vs control” value in the data set on PC-3 cells [2] is 32 fold. In addition, the “Increase in late apoptosis ratio vs control” value with PC-3 cells [2] is given as 150 fold. Moreover, the Late apoptosis in the data set on PC-3 cells [2] (control 0.15%) is given as 22.49%. This molecule came in with an Early apoptosis with PC-3 cells [2] (control 0.43%) of 13.92%. The same molecule returned a Necrosis with PC-3 cells [2] (control 1.20) of 4.65%. Also, the Total apoptosis in the data set on PC-3 cells [2] (control 1.78) came to 41.06%. Besides, in the data set on caspase-3 in PC-3 cells (24 h), the “Increase in caspase-3 level vs control cells” value is 5.3 fold. Moreover, in the data set on caspase-3 in PC-3 cells (24 h treatment, 8a at 3.04 µM, control 84.24, mean ± SEM), the Caspase-3 level is 452.3 pg/mL and 452.3 ± 10.5 pg/mL. Further, the inhibition (in general, the drop in the measured response relative to a control, in per cent) at 100 µM in the data set on prostate cancer (PC-3) turned out to be 98%; in the data set on lung cancer (A-549) it was 90%; in the data set with breast cancer (MCF-7), 32%; in the data set on colon cancer (HCT-116) it was 84%. Besides, the IC50 (usually the concentration that inhibits the measured activity by half) in the data set on prostate cancer (PC-3) turned out to be 7.98 ± 2.4 µM; with lung cancer (A-549), 16.2 ± 2.4 µM; with colon cancer (HCT-116), 25.6 ± 1.3 µM; at EGFR^WT, 0.099 ± 0.007 µM; against EGFR^T790M it was 0.123 ± 0.01 µM. In addition, in the data set on colon cancer (HCT-116), the “Cytotoxic activity against HCT-116” value is reported as “mild cytotoxic activity”.

Turning to `COc1cc(-c2cc(-c3ccc(C)cc3)nc3nc4[nH]c5ccccc5c(=O)n4c(=O)c23)cc(OC)c1OC` [Compound 8d, 2-(p-Tolyl)-4–(3,4,5-trimethoxyphenyl)-5H-pyrido[2',3':4,5] pyrimido[2,1-b]quinazoline-5,7(12H)-dione], the melting point (commonly the temperature, or range, at which the solid turns liquid) is greater than 300 °C. Moreover, in the data set on prostate cancer (PC-3), the inhibition at 100 µM stood at 95% and the IC50 was determined as 7.12 ± 2 µM. For the same molecule, in the data set with lung cancer (A-549), the inhibition at 100 µM amounted to 97% and the IC50 worked out at 7.23 ± 2.1 µM. The inhibition at 100 µM in the data set with breast cancer (MCF-7) came out at 15%. Further, in the data set with colon cancer (HCT-116), the inhibition at 100 µM was found to be 78%, the IC50 was 70.2 ± 2 µM and the “Cytotoxic activity against HCT-116” value is on record as “mild cytotoxic activity”. Further, on EGFR^WT, half-maximal inhibition (IC50) was put at 0.419 ± 0.029 µM. Also, the IC50 at EGFR^T790M was 0.29 ± 0.023 µM.

The molecule `NNc1nc2nc(-c3ccc(Cl)cc3)cc(-c3ccc(Cl)cc3Cl)c2c(=O)[nH]1` [Compound 9a, 7-(4-Chlorophenyl)-5–(2,4-dichlorophenyl)-2-hydrazineylpyrido[2,3-d]pyrimidin-4(3H)-one] returned a melting point of 265 to 267 °C. Further, in the data set on prostate cancer (PC-3), the inhibition at 100 µM was 90% and the IC50 was determined as 9.26 ± 2.4 µM. Moreover, the inhibition at 100 µM with lung cancer (A-549) amounted to 42%. Also, in the data set on breast cancer (MCF-7), the inhibition at 100 µM was 68%. Further, the IC50 in the data set with breast cancer (MCF-7) (MCF7, read-out: IC50 MCF-7) was found to be 42 ± 1.2 µM. Besides, in the data set on colon cancer (HCT-116), the inhibition at 100 µM amounted to 89%. The molecule also gave an IC50 at EGFR^WT of 0.594 ± 0.042 µM. The same molecule had a concentration for half-maximal inhibition (IC50) against EGFR^T790M of 0.571 ± 0.046 µM.
